Patent publication US20230399623A1, “ARTIFICAL LIVER ORGANOIDS AND METHODS OF THEIR PRODUCTION” (Oslo Universitetssykehus HF, priority 2020, published 2023)

How the values were obtained:
[1] = tested on: organoids; assay: Oleic acid accumulation assay (BODIPY lipid staining); type: cell-based, human; details: 300 μM, 5 days
Description: 1 M Oleic acid (Sigma Aldrich) was diluted with NaOH (Sigma Aldrich) and heated at 70° C. for 30 minutes to form a 20 mM Sodium Oleate solution. This was then diluted with a 5% BSA/PBS solution at 37° C. to form a 5 mM Sodium Oleate/BSA complex. This was further diluted to 300 μM in culture media and incubated with organoids for 5 days, changing the media each day. After the fatty acid treatment, the organoids were then incubated with 3.8 μM BODIPY 493/503 (Life Technologies) for 30 minutes in culture media at 37° C., then washed two times with PBS before replacing with fresh culture media containing DRAQ5 (Thermofisher) at 1:1500. Organoids were then imaged on a confocal as described above.

[2] = tested on: organoids; assay: Heroin metabolism in liver organoids (UPLC-MS/MS); type: in vitro ADME, human; details: 10 μM heroin
Description: After 21 days differentiation, 50 organoids per well were loaded in triplicate into a 96-well plate and treated with culture media supplemented with 10 μM heroin for 1, 3, 6, and 24 hours. For controls, we used culture media without organoids; these were performed in parallel to measure heroin degradation throughout the experiment. To stop metabolism at each time point the samples were transferred to a new 96-well plate prefilled with formic acid (final conc. 0.1 M) along with internal standards. The samples were centrifuged for 10 minutes at 1000×g at 4° C. The supernatants were transferred to auto-sampler vials and analysed for heroin, morphine, and M3G using an Acquity UPLC system (Waters, Milford, MA) coupled to a Xevo-TQS triple quadrupole mass spectrometer with an electrospray ionization interface (Waters) based on a method previously described 62. Data acquisition, peak integration, and quantification of samples were performed using MassLynx 4.0 SCN509 software (Waters Corp., Milford, MA, USA).
The field of non-CYP450-mediated metabolism has attracted increasing attention as an important player in absorption, distribution, metabolism, and excretion^44. […] We tested if organoids supported heroin metabolism by exposure to 10 μM heroin and quantification by UPLC-MS/MS. […]

[3] = tested on: human liver microsomes and a human S9 fraction; assay: Heroin metabolism in control liver fractions; type: in vitro ADME; details: controls: human liver microsomes and human S9 fraction
Description: The field of non-CYP450-mediated metabolism has attracted increasing attention as an important player in absorption, distribution, metabolism, and excretion^44. We investigated liver carboxyl esterases (CES), which are hydrolytic enzymes involved in the metabolism of endogenous esters, ester-containing drugs, pro-drugs and environmental toxicants^45. The CES enzymes also metabolize a wide range of xenobiotic substrates including heroin, which is metabolized by sequential deacetylation (phase I reaction) to 6-monoacetylmorphine (6-MAM) and morphine. Morphine is then glucuronidated, by a phase II reaction via UDP-glucuronosyltransferase (UGT) to morphine-3-glucuronide (M3G). We tested if organoids supported heroin metabolism by exposure to 10 μM heroin and quantification by UPLC-MS/MS. We also compared organoid metabolism to human liver microsomes and a human S9 fraction (unfractionated microsomes and cytosol. The kinetics of metabolism was slower in the organoids we observed phase I metabolism of heroin by CES to morphine in approximately 6 hours, while the controls produced morphine in approximately 12 minutes. However, phase II metabolism (UGT) to morphine glucuronides was detectable in the organoids and absent in the controls.

SMILES	lipid accumulation in organoids (Bodipy) [1]	phase II metabolism (UGT) to morphine glucuronides [2]	phase II metabolism (UGT) to morphine glucuronides [3]
CCCCCCCC/C=C\CCCCCCCC(=O)O [free fatty acid, Oleic acid]	massive lipid accumulation		
CC(=O)Oc1ccc2c3c1O[C@H]1[C@@H](OC(C)=O)C=C[C@H]4[C@@H](C2)N(C)CC[C@@]341 [heroin]		detectable	absent
